# Measured values from patent publication US8163269B2, “Bioactive stents for type II diabetics and methods for use thereof” (priority 2004, dated 2012).
# No end group written: not given here.
# How the values were obtained:
# ECs = test: adhesion assay with peptides conjugated to PEA polymer; assay type: cell-based, Human; parameters: key to adhesion assay microscopic observation, cell shape: r = round; s = spindly; sp = spread; details: for ability of peptide to bind to cells after conjugation / adhesion of ECs compared to SMCs on conjugated peptide versus unconjugated PEA-H polymer: peptide conjugated to PEA-H polymer; for adhesion relative to basal levels: assays 1 and 2
# Protocol: (§1) The attachment factor, in a phosphate buffered saline (PBS) solution, was coated onto a non-tissue culture dish and allowed to adsorb overnight at 4° C. The following day the plate was blocked for 1 hour at room temperature with heat-inactivated, 0.2% bovine serum albumin (BSA) solution (in PBS) to prevent non-specific attachment. A timed adhesion assay was then conducted. The assay includes negative control wells coated only with PBS and positive control wells coated with fibronectin. So far, none of the adhesion factors tested has surpassed the cell adhesion and cell spreading induced by fibronectin. In addition to adhesion, spreading is also an important consideration in determining the suitability of a substrate. If the cells are not able to spread, it is unlikely that the cells will proliferate on that surface.
# The first conjugation was done to the PEA-H version of the polymer (acid) since this polymer has suitable sites for conjugation. The peptides can be covalently bound to this polymer via a wide variety of suitable functional groups. For example, when the biodegradable polymer is a poly(ester amide) (PEA) containing Lysine residues, the carboxyl groups from the Lysine residues can be used to react with a complementary moiety on the peptide, such as an hydroxy, amino, thio moiety, and the like (5). Specifically, the PEA-H polymer with free COOH reacts with water soluble carbodiimide (WSC) and N-Hydroxysuccinimide (HOSu) to produce an activated ester, which, in turn, reacts with an amino functional group of a peptide to provide an amide linkage (FIG. 6B). By using a fluorescent dansyl-lysine (FIG. 5), the optimal reaction conditions for activation and conjugation were determined (FIG. 6A).
# The conjugation of CS5 and GREDVDY peptides to the polymer was then performed using the same protocol (FIG. 6B).
# A similar protocol (see flow chart FIG. 6B) was used to conjugate combinations of the acid polymer with PEA polymer of structure (I) containing acetylated ends and benzylated COOH groups, (PEA-AcBz) and PEA-TEMPO (50/50 and 10/90), respectively. By combining the conjugatable acid form with the other polymers, a determination could be made whether the presence of the recruitment peptide on the polymer conferred an advantage in EC recruitment.
# Microscopic observations taken at 2 h, 4 h and 6 h from duplicate wells from two representative adhesion assays are summarized in Table 2 below.
# [1] = system: endothelial cells (ECs), HCAEC=Human Coronary Artery Endothelial Cells; test: in vitro adhesion assay, attachment factor adsorbed onto non-tissue culture dish; assay type: cell-based; details: for specificity of cell adhesion, ECs over SMCs: HCAEC versus HASMC, adsorbed peptide; for adhesion data among bioligands tested / cell adhesion and cell spreading compared with fibronectin positive control: adsorbed attachment factor
# Text: Cell Recruitment to Bioactive Agents To select appropriate bioligands for use as recruitment factors in stent applications, an in vitro adhesion assay was developed. This assay can distinguish between endothelial cells (ECs) and smooth muscle cells (SMCs) to aid in selecting potential attachment factors. Both the ECs and SMCs used in these assays were purchased from Cambrex (Baltimore, Md.) (HASMC=Human Aortic Smooth Muscle Cells and HCAEC=Human Coronary Artery Endothelial Cells).
# as §1
# In addition to microscopic observations, cell adhesion was quantitated using an ATP assay. Data of a representative adhesion assay quantitation by ATP standard curve is shown in the graph in FIG. 4, which illustrates the comparative results obtained at 2, 4 and 6 hours into the assay. […] The cell spreading determined in microscopic observations may indicate that cell spreading can increase the overall degree of cell adhesion since more space is occupied by a well spread cell than by an adhered cell that has not spread on the surface, due to timing of data points or appropriateness of the substrate used. The ATP data are useful to support the observational findings of the adhesion assay but cannot replace the adhesion assay.
# [2] = 2 h, 10/90 H/Bz (10% PEA-H and 90% PEA-Ac-Bz), Assay 1
# [3] = 2 h, 10/90 H/Bz (10% PEA-H and 90% PEA-Ac-Bz), Assay 2
# [4] = 2 h, 10/90 H/T (10% PEA-H and 90% PEA-Ac-TEMPO), Assay 1
# [5] = 2 h, 10/90 H/T (10% PEA-H and 90% PEA-Ac-TEMPO), Assay 2
# [6] = 2 h, 50/50 H/Bz (50% PEA-H and 50% PEA-Ac-Bz), Assay 1
# [7] = 2 h, 50/50 H/Bz (50% PEA-H and 50% PEA-Ac-Bz), Assay 2
# [8] = 2 h, 50/50 H/T (50% PEA-H and 50% PEA-Ac-TEMPO), Assay 1
# [9] = 2 h, 50/50 H/T (50% PEA-H and 50% PEA-Ac-TEMPO), Assay 2
# [10] = 4 h, 10/90 H/Bz (10% PEA-H and 90% PEA-Ac-Bz), Assay 1
# [11] = 4 h, 10/90 H/Bz (10% PEA-H and 90% PEA-Ac-Bz), Assay 2
# [12] = 4 h, 10/90 H/T (10% PEA-H and 90% PEA-Ac-TEMPO), Assay 1
# [13] = 4 h, 10/90 H/T (10% PEA-H and 90% PEA-Ac-TEMPO), Assay 2
# [14] = 4 h, 50/50 H/Bz (50% PEA-H and 50% PEA-Ac-Bz), Assay 1
# [15] = 4 h, 50/50 H/Bz (50% PEA-H and 50% PEA-Ac-Bz), Assay 2
# [16] = 4 h, 50/50 H/T (50% PEA-H and 50% PEA-Ac-TEMPO), Assay 1
# [17] = 4 h, 50/50 H/T (50% PEA-H and 50% PEA-Ac-TEMPO), Assay 2
# [18] = 6 h, 10/90 H/Bz (10% PEA-H and 90% PEA-Ac-Bz), Assay 1
# [19] = 6 h, 10/90 H/Bz (10% PEA-H and 90% PEA-Ac-Bz), Assay 2
# [20] = 6 h, 10/90 H/T (10% PEA-H and 90% PEA-Ac-TEMPO), Assay 1
# [21] = 6 h, 10/90 H/T (10% PEA-H and 90% PEA-Ac-TEMPO), Assay 2
# [22] = 6 h, 50/50 H/Bz (50% PEA-H and 50% PEA-Ac-Bz), Assay 1
# [23] = 6 h, 50/50 H/Bz (50% PEA-H and 50% PEA-Ac-Bz), Assay 2
# [24] = 6 h, 50/50 H/T (50% PEA-H and 50% PEA-Ac-TEMPO), Assay 1
# [25] = 6 h, 50/50 H/T (50% PEA-H and 50% PEA-Ac-TEMPO), Assay 2
substance,measurement,setting,value
Conj REDV: GREDVDY peptide (SEQ ID NO:11) conjugated to PEA-H mixed with PEA-Ac-Bz or PEA-Ac-TEMPO polymer coating (also: conjugated to PEA polymer coating),"adhesion assay microscopic observation, %",ECs; [2],30%
same,"adhesion assay microscopic observation, cell shape",ECs; [2],r/s
same,"adhesion assay microscopic observation, %",ECs; [3],30%
same,"adhesion assay microscopic observation, cell shape",ECs; [3],r/s/sp
same,"adhesion assay microscopic observation, %",ECs; [4],30%
same,"adhesion assay microscopic observation, cell shape",ECs; [4],r/s
same,"adhesion assay microscopic observation, %",ECs; [5],30%
same,"adhesion assay microscopic observation, cell shape",ECs; [5],r/s/sp
same,"adhesion assay microscopic observation, %",ECs; [6],20-30%
same,"adhesion assay microscopic observation, cell shape",ECs; [6],r
same,"adhesion assay microscopic observation, %",ECs; [7],30-40%
same,"adhesion assay microscopic observation, cell shape",ECs; [7],r/s/sp
same,"adhesion assay microscopic observation, %",ECs; [8],20-30%
same,"adhesion assay microscopic observation, cell shape",ECs; [8],r
same,"adhesion assay microscopic observation, %",ECs; [9],30%
same,"adhesion assay microscopic observation, cell shape",ECs; [9],r/s/sp
same,"adhesion assay microscopic observation, %",ECs; [10],30-40%
same,"adhesion assay microscopic observation, cell shape",ECs; [10],r/s/sp
same,"adhesion assay microscopic observation, %",ECs; [11],30-40%
same,"adhesion assay microscopic observation, cell shape",ECs; [11],s/sp
same,"adhesion assay microscopic observation, %",ECs; [12],30-40%
same,"adhesion assay microscopic observation, cell shape",ECs; [12],s/sp
same,"adhesion assay microscopic observation, %",ECs; [13],40%
same,"adhesion assay microscopic observation, cell shape",ECs; [13],s/sp
same,"adhesion assay microscopic observation, %",ECs; [14],30%
same,"adhesion assay microscopic observation, cell shape",ECs; [14],s/sp
same,"adhesion assay microscopic observation, %",ECs; [15],30-40%
same,"adhesion assay microscopic observation, cell shape",ECs; [15],s/sp
same,"adhesion assay microscopic observation, %",ECs; [16],30%
same,"adhesion assay microscopic observation, %",ECs; [17],30%
same,"adhesion assay microscopic observation, cell shape",ECs; [17],r/s/sp
same,"adhesion assay microscopic observation, %",ECs; [18],30%
same,"adhesion assay microscopic observation, cell shape",ECs; [18],s/sp
same,"adhesion assay microscopic observation, %",ECs; [19],30-40%
same,"adhesion assay microscopic observation, cell shape",ECs; [19],r/s/sp
same,"adhesion assay microscopic observation, %",ECs; [20],30-40%
same,"adhesion assay microscopic observation, cell shape",ECs; [20],r/s/sp
same,"adhesion assay microscopic observation, %",ECs; [21],40%
same,"adhesion assay microscopic observation, cell shape",ECs; [21],s/sp
same,"adhesion assay microscopic observation, %",ECs; [22],30%
same,"adhesion assay microscopic observation, cell shape",ECs; [22],r/s
same,"adhesion assay microscopic observation, %",ECs; [23],30-40%
same,"adhesion assay microscopic observation, cell shape",ECs; [23],r/s/sp
same,"adhesion assay microscopic observation, %",ECs; [24],20%
same,"adhesion assay microscopic observation, cell shape",ECs; [24],r
same,"adhesion assay microscopic observation, %",ECs; [25],30-40%
same,"adhesion assay microscopic observation, cell shape",ECs; [25],s/sp
GEEIQIGHIPREDVDYHLYP [CS5],"specificity of cell adhesion, ECs over SMCs",[1],showed specificity for ECs over SMCs
same,adhesion data among bioligands tested,[1],gave the most promising adhesion data
same,cell adhesion and cell spreading compared with fibronectin positive control,[1],neither of these peptide sequences equaled the large molecule fibronectin in cell adhesion or spreading
same,ability of peptide to bind to cells after conjugation,ECs,did not alter their ability to bind to cells
same,adhesion of ECs compared to SMCs on conjugated peptide versus unconjugated PEA-H polymer,ECs,adhered significantly better to the conjugated peptides than on the unconjugated PEA-H polymer
Conj CS5: CS5 peptide (SEQ ID NO:1) conjugated to PEA-H mixed with PEA-Ac-Bz or PEA-Ac-TEMPO polymer coating (GEEIQIGHIPREDVDYHLYP; also: conjugated to PEA polymer coating),"adhesion assay microscopic observation, %",ECs; [2],30%
same,"adhesion assay microscopic observation, cell shape",ECs; [2],r/s
same,"adhesion assay microscopic observation, %",ECs; [3],30%
same,"adhesion assay microscopic observation, cell shape",ECs; [3],r/s
same,"adhesion assay microscopic observation, %",ECs; [4],30%
same,"adhesion assay microscopic observation, cell shape",ECs; [4],r/s
same,"adhesion assay microscopic observation, %",ECs; [5],30%
same,"adhesion assay microscopic observation, cell shape",ECs; [5],r/s/sp
same,"adhesion assay microscopic observation, %",ECs; [6],20%
same,"adhesion assay microscopic observation, cell shape",ECs; [6],r
same,"adhesion assay microscopic observation, %",ECs; [7],20-30%
same,"adhesion assay microscopic observation, cell shape",ECs; [7],r
same,"adhesion assay microscopic observation, %",ECs; [8],20-30%
same,"adhesion assay microscopic observation, cell shape",ECs; [8],r/s
same,"adhesion assay microscopic observation, %",ECs; [9],30%
same,"adhesion assay microscopic observation, cell shape",ECs; [9],r/s
same,"adhesion assay microscopic observation, %",ECs; [10],40%
same,"adhesion assay microscopic observation, cell shape",ECs; [10],r/sp
same,"adhesion assay microscopic observation, %",ECs; [11],30%
same,"adhesion assay microscopic observation, cell shape",ECs; [11],s/sp
same,"adhesion assay microscopic observation, %",ECs; [12],30%
same,"adhesion assay microscopic observation, cell shape",ECs; [12],r/s/sp
same,"adhesion assay microscopic observation, %",ECs; [13],30-40%
same,"adhesion assay microscopic observation, cell shape",ECs; [13],s/sp
same,"adhesion assay microscopic observation, %",ECs; [14],30%
same,"adhesion assay microscopic observation, cell shape",ECs; [14],r
same,"adhesion assay microscopic observation, %",ECs; [15],30%
same,"adhesion assay microscopic observation, cell shape",ECs; [15],r/s/sp
same,"adhesion assay microscopic observation, %",ECs; [16],30%
same,"adhesion assay microscopic observation, cell shape",ECs; [16],r
same,"adhesion assay microscopic observation, %",ECs; [17],30-40%
same,"adhesion assay microscopic observation, cell shape",ECs; [17],r/s/sp
same,"adhesion assay microscopic observation, %",ECs; [18],30-40%
same,"adhesion assay microscopic observation, cell shape",ECs; [18],s/sp
same,"adhesion assay microscopic observation, %",ECs; [19],30%
same,"adhesion assay microscopic observation, cell shape",ECs; [19],r/s/sp
same,"adhesion assay microscopic observation, %",ECs; [20],30-40%
same,"adhesion assay microscopic observation, cell shape",ECs; [20],r/s/sp
same,"adhesion assay microscopic observation, %",ECs; [21],30%
same,"adhesion assay microscopic observation, cell shape",ECs; [21],r/s/sp
same,"adhesion assay microscopic observation, %",ECs; [22],20%
same,"adhesion assay microscopic observation, cell shape",ECs; [22],r
same,"adhesion assay microscopic observation, %",ECs; [23],30%
same,"adhesion assay microscopic observation, cell shape",ECs; [23],r/s
same,"adhesion assay microscopic observation, %",ECs; [24],20%
same,"adhesion assay microscopic observation, cell shape",ECs; [24],r
same,"adhesion assay microscopic observation, %",ECs; [25],30%
same,"adhesion assay microscopic observation, cell shape",ECs; [25],r/s
GREDVDY,"specificity of cell adhesion, ECs over SMCs",[1],showed specificity for ECs over SMCs
same,adhesion data among bioligands tested,[1],gave the most promising adhesion data
same,cell adhesion and cell spreading compared with fibronectin positive control,[1],neither of these peptide sequences equaled the large molecule fibronectin in cell adhesion or spreading
same,adhesion relative to basal levels,ECs; 10/90 PEA-H/PEA-TEMPO (H/T) conjugated to peptide,increased adhesion over basal levels
same,adhesion relative to basal levels,ECs; 50/50 PEA-H/PEA-Ac-Bz (H/Bz) conjugated to peptide,increased adhesion over basal levels
same,"cell recruitment, complete evaluation of assays with conjugated peptides on polymer",ECs; Table 2 assays,more robust in cell recruitment than the longer (20 mer) CS5 peptide
same,ability of peptide to bind to cells after conjugation,ECs,did not alter their ability to bind to cells
same,adhesion of ECs compared to SMCs on conjugated peptide versus unconjugated PEA-H polymer,ECs,adhered significantly better to the conjugated peptides than on the unconjugated PEA-H polymer
